From US20230125810A1, “DESIGNED BACTERIAL COMPOSITIONS AND USES THEREOF” (Seres Therapeutics, Inc., priority 2019, published 2023)
Where two headings read alike, the source gives them in different places.

Key:
[1] = test system: AhR-mediated cyp1a1 expression; assay: AhR-mediated cyp1a1 expression in epithelial colonic organoids
Experimental: In FIG. 7A, the metabolites (3-indole acetic acid, 3-methylindole, indole, indoleacrylate, 3-indole butyric acid, and indolepropionic acid, IPA) were added at three different concentrations (50, 100, and 200 μM), with increasing concentrations from right to left. Untreated epithelial organoids (Untd) were used as a negative control. In FIG. 7B, supernatants were collected from cultures containing different bacteria (Clostridium sporogenes 1, Clostridium sporogenes 2, Peptostreptococcus stomatis, Clostridium glycolicum, Bacteroides sp. 4 1 36) and were provided to the epithelial organoids at two different concentrations (5% and 2% final concentration), with the left bar corresponding to the higher concentration. The SCFAs and tryptophan metabolites present in each supernatant (from FIGS. 17 and 18) are indicated. IPA: indolepropionic acid; IAcryl: Indole acrylate; 3Mind: 3-methylindole; I3Carb: indole-3-carbinol; C3: propionate; C4: butyrate; C5: valerate; C6: hexanoate; BCFA: branch chain fatty acids.
AhR activation is reportedly associated with strengthening of the intestinal epithelial barrier and mucosal homeostasis in the intestine by inducing broad changes in gene expression. […] An increase in Cyp1a1 expression is considered to be a specific measure of AhR-mediated gene expression.

[2] = test system: TNF-α-driven IL-8 secretion by HT29 epithelial cells; assay: Anti-inflammatory assay in IECs (TNF-α-driven IL-8 secretion); type: cell-based, human; details: 1 hour pre-treatment
[3] = test system: primary human colon epithelial cell monolayer; assay: Primary epithelial cell monolayer barrier integrity assay (IFN-γ, FITC-dextran); details: 5 mM
Experimental: The assays were performed using a primary epithelial cell monolayer barrier integrity assay. […] The addition of interferon-gamma (IFN-γ) disrupts the tight junctions of the epithelial monolayer and induces apoptosis of epithelial cells. The leakiness of the membrane can be assessed by adding FITC-dextran to the apical side of the apparatus and measuring how rapidly it can pass to the basolateral compartment. A leaky monolayer will allow FITC-dextran to the basal side of the apparatus more quickly than a monolayer with an intact monolayer.
Briefly, the barrier integrity assay was conducted as follows. Primary human colon organoid cultures established from isolated colon crypts were grown and expanded in Matrigel® (Corning) and 50% L-cell conditioned medium containing Wnt3a, R-spondin 3 and Noggin (L-WRN) as described by VanDussen et al. containing 10 uM Y-27632 and 10 uM SB43152 (Gut 64:911-920, 2015). […] After the 48-hour incubation, colonic epithelial monolayer permeability was assessed by adding 10 μL of 10 ng/ml FITC-Dextran (4 kDa, Sigma) to the apical interface, the organoids were incubated for 1 hour and then 100 μL of medium was collected from the basolateral compartment of each transwell and transferred to a 96 well plate for fluorescence detection.

[4] = test system: clinical remission of ulcerative colitis; type: in vivo, human; details: UC patients treated with HHSP
[5] = test system: HDAC enzymes (HeLa nuclear extract); assay: HDAC inhibition assay (HDAC-Glo I/II, HeLa nuclear extract); type: biochemical; details: for HDAC Inhibition in any C source (25/18% cutoff): single strain supernatants, PY medium with one of seven C sources
[6] = GC-MS of SCFAs, MCFAs, BCFAs and tryptophan metabolites in bacterial supernatants; details: single strain supernatants
Source text: FIG. 18 provides a table listing bacterial species and the short chain fatty acids (SCFAs), medium chain fatty acids (MCFAs), and branched chain fatty acids (BCFAs) produced by each of the species. […] The limit of detection for each of the fatty acids is provided in the row labeled “Limit of Detection (LOD).” The SCFAs measured included: acetic acid, propanoic acid, and butanoic acid. The MCFAs measured included: pentanoic acid, hexanoic acid, heptanoic acid. The BCFAs measured included: 2-methyl-propanopic acid, 3-methyl-butanoic acid, and 4-methyl-pentaoic acid.
FIG. 19 provides a table listing bacterial species and tryptophan metabolites produced by the species. […] The limit of detection for each of the fatty acids is provided in the row labeled “Limit of Detection (LOD).” The tryptophan metabolites measured included: indole, 3-methylindole, indol-3-propanoic acid, indole-3-butyric acid, 3-indoleacrylic acid, tryptamine, indole-3-acetic acid, 3-indole-glycoxylic acid, 2-picolinic acid, and 5-hydroxytryptamine.
As described supra, certain tryptophan (Trp) metabolites were associated with remission in patients treated with an HHSP. […] The presence of the tryptophan metabolites was determined using a colorimetric assay for detection of indolic compounds (Indole Reagent, Anaerob Systems). […]

[7] = intestinal epithelial organoids

Molecule: O=C(O)Cc1c[nH]c2ccccc12 [3-indole acetic acid]
- AhR-mediated cyp1a1 expression [1, 7]: induced AhR-mediated cyp1a1 expression

Molecule: Cc1c[nH]c2ccccc12 [3-methylindole]
- AhR-mediated cyp1a1 expression ([1]; human): induced AhR-mediated cyp1a1 expression

Molecule: CC(=O)O [acetate]
- TNF-α-dependent IL-8 secretion by IECs [2]: reduced levels of TNF-α-dependent IL-8 secretion

Molecule: CCCC(=O)O [butyrate]
- decrease of permeability [3]: 50%

Molecule: c1ccc2[nH]ccc2c1 [indole]
- AhR-mediated cyp1a1 expression [1, 7]: induced AhR-mediated cyp1a1 expression

Molecule: O=C(O)/C=C/c1c[nH]c2ccccc12 [indoleacrylate]
- AhR-mediated cyp1a1 expression [1, 7]: induced AhR-mediated cyp1a1 expression

Molecule: CCC(=O)O [propionate]
- TNF-α-dependent IL-8 secretion by IECs [2]: reduced levels of TNF-α-dependent IL-8 secretion

Molecule: Clostridium bolteae
- Associated Clinical Outcome [4]: Remitter

Molecule: Clostridium clostridioforme
- HDAC cluster assignment [5]: 6
- HDAC Inhibition in any C source (25/18% cutoff) [5]: 1 (If a strain exhibits HDACi activity of at least 0.25 in any nutrient, or 0.18 in fucose, it is considered to have HDACi activity and it is marked with “1”)

Molecule: Clostridium disporicum
- HDAC cluster assignment [5]: 0
- HDAC Inhibition in any C source (25/18% cutoff) [5]: 1 (If a strain exhibits HDACi activity of at least 0.25 in any nutrient, or 0.18 in fucose, it is considered to have HDACi activity and it is marked with “1”)

Molecule: Clostridium glycolicum
- hexanoate production [6]: Hexanoate producing

Molecule: Clostridium mayombei
- HDAC cluster assignment [5]: 2
- HDAC Inhibition in any C source (25/18% cutoff) [5]: 1 (If a strain exhibits HDACi activity of at least 0.25 in any nutrient, or 0.18 in fucose, it is considered to have HDACi activity and it is marked with “1”)

Molecule: Clostridium sp 7 2 43FAA
- HDAC cluster assignment ([5]; pattern of HDAC inhibition across nutrient sources): 5
- HDAC Inhibition in any C source (25/18% cutoff) [5]: 1 (If a strain exhibits HDACi activity of at least 0.25 in any nutrient, or 0.18 in fucose, it is considered to have HDACi activity and it is marked with “1”)

Molecule: Clostridium symbiosum
- Associated Clinical Outcome [4]: Remitter

Molecule: Clostridium tertium
- HDAC cluster assignment [5]: 5
- HDAC Inhibition in any C source (25/18% cutoff) [5]: 1 (If a strain exhibits HDACi activity of at least 0.25 in any nutrient, or 0.18 in fucose, it is considered to have HDACi activity and it is marked with “1”)

Molecule: Parabacteroides distasonis
- HDAC cluster assignment [5]: 3
- HDAC Inhibition in any C source (25/18% cutoff) [5]: 1 (If a strain exhibits HDACi activity of at least 0.25 in any nutrient, or 0.18 in fucose, it is considered to have HDACi activity and it is marked with “1”)
